Counter-ions that a name gives are not always drawn.
Key:
LDL receptor [1] = experiment: LDL receptor activity: amount of DiI-LDL uptaken into HepG2 cells; format: cell-based, human; settings: DiI-LDL uptake into HepG2 cells, control group = 100%
Protocol: A preparation of 1,1′-dioctadecyl-3,3,3′,3′-tetramethylindocarbocyanine perchlorate (DiI)-labeled LDL (DiI-LDL) was carried out as follows. That is, DiI (invitrogen, the U.S.) was mixed with human LDL (CHEMICON, the U.S.), and the mixture was kept for 8 hours at 37° C. Thereto a specific density solution (d=1.182) was added and mixed, and then treated with super centrifugation operation (32 k rpm, 14 hours; using Beckman Ti55.2 rotator). After the centrifugation, the DiI labeled LDL fraction was taken up and prepared via a dialysis against saline.
The action on LDL receptor was determined with the amount of the DiI-LDL uptaken into HepG2 cells which was as an indicator. Namely, human hepatoma cell line HepG2 was bought from DAINIPPON PHARMACEUTICAL CO., LTD (Osaka, Japan) and it was used for the experiment. The HepG2 cells were plated on a 96 well plate and incubated with Dulbecco's modified Eagle/F-12 medium (DMEM/F-12) containing 10% fetal bovine serum and antibiotics for 2-3 days at 37° C. in a CO2 incubator. After washing the cells, DMEM/F-12 media containing the test compound, 10% delipoprotein serum and antibiotics was added thereto and cells were incubated for 19 hours at 37° C. The DiI-LDL was added thereto, and cells were incubated for additional 5 hours at 37° C. in a CO2 incubator. For the measurement of the amount of nonspecific DiI-LDL uptake, another 30-50 times the nonlabeled LDL was added additively to each well. After washing cells with Dulbecco's phosphate buffer (SIGMA, the U.S.), Dulbecco's phosphate buffer was added to each well, and then the fluorescence value was measured with a fluorescence plate reader to determine the amount of the DiI-LDL uptaken into cells. After measuring the fluorescence, the Dulbecco's phosphate buffer was removed. Cells were dissolved in 1N sodium hydroxide solution. Using a part of the solution, the protein amount was measured. The action of each compound on LDL receptor was estimated on the basis of 100% of the control group, using the value given by subtracting the nonspecifically uptaken amount from the calculated fluorescence value/protein amount.

LDL receptor [2] = experiment: Measurement of LDL receptor expression: LDL-R protein amount by immunoblotting in HepG2 cells; format: cell-based, human; settings: compared with the control group
Protocol: We investigated the effect of each test compound on the amount of LDL receptor in HepG2 cells, a human hepatoma cell line. Cells were seeded in each well of 6-well plates at the density of 7.5×10^5 cells/well (day 1). On day 3, the culture media was changed to a media containing lipoprotein deficient serum and the test compound. On day 4, the cells were scraped and then collected by centrifugation operation. The collected cells were lysed in a buffer containing 0.1% TritonX-100, treated with centrifugation, and then the supernatant was given as a cell protein solution. Using the prepared cell protein solution, the LDL-R protein amount was determined with an immunoblotting procedure.
HepG2 cells were treated with the compound of Examples 1-4, and then LDL receptor protein amount was determined by immunoblotting procedure.

Compound | Activity of LDL receptor(%) (LDL receptor [1]; 10 μM) | other results
COc1cccc(C2(CO)CCN(c3ccccc3OC)CC2)c1 [Example 12, [1-(2-Methoxyphenyl)-4-(3-methoxyphenyl)piperidin-4-yl]-methanol] | 134 | 
COc1cccc(C2(C(=O)NCc3ccccc3)CCN(c3ncccn3)CC2)c1 [Example 43-2, N-benzyl-4-(3-methoxyphenyl)-1-pyrimidin-2-ylpiperidine-4-carboxyamide] | 116 | 
COc1cccc(C2(C#N)CCN(c3nc4ccccc4s3)CC2)c1 [Example 7-3, 1-(1,3-Benzothiazol-2-yl)-4-(3-methoxyphenyl)piperidine-4-carbonitrile] |  | Activity of LDL receptor(%) (LDL receptor [1]; 3 μM): 125%
COc1cccc(C2(C#N)CCN(c3ccccc3OC)CC2)c1 [Example 1-4, 1-(2-methoxyphenyl)-4-(3-methoxyphenyl)-piperidine-4-carbonitrile] | 134 | LDL receptor protein amount (immunoblotting) (LDL receptor [2]; 1 μM): superior activity enhancing the protein amount of LDL receptor; LDL receptor protein amount (immunoblotting) (LDL receptor [2]; 10 μM): superior activity enhancing the protein amount of LDL receptor
COc1cccc(C2(C#N)CCN(C3CCN(Cc4ccccc4)CC3)CC2)c1 [Example 89, 1′-benzyl-4-(3-methoxyphenyl)-1,4′-bipiperidine-4-carbonitrile] | 195 | 
COc1cccc(C2(C(=S)NCc3ccccc3)CCN(c3ncccn3)CC2)c1 [Example 44, N-benzyl-4-(3-methoxyphenyl)-1-pyrimidin-2-ylpiperidine-4-carbothioamide] |  | Activity of LDL receptor(%) (LDL receptor [1]; 3 μM): 135%
COc1cccc(C2(CN3CCCCC3)CCN(c3ccccc3OC)CC2)c1 [Example 55-1, 1-(2-methoxyphenyl)-4-(3-methoxyphenyl)-4-(piperidin-1-ylmethyl)piperidine] |  | Activity of LDL receptor(%) (LDL receptor [1]; 1 μM): 141%
COc1cccc(C2(C(N)=O)CC3CCC(C2)N3c2ccccc2OC)c1 (centres unmarked) [Example 49-f, 8-(2-Methoxyphenyl)-3-(3-methoxyphenyl)-8-azabicyclo-[3.2.1]octane-3-carboxyamide] | 135 | 
COc1cccc([C@]2(C#N)CC[C@H](N3CCNCC3)CC2)c1 (as salt: hydrochloride) [Example 58-1, trans-1-(3-methoxyphenyl)-4-piperazin-1-yl-cyclohexanecarbonitrile dihydrochloride] |  | melting point: 159 to 160 °C
1-(2-methoxyphenyl)-4-[3-(methylamino)-phenyl]piperidine-4-carbonitrile and 4-[3-(dimethylamino)-phenyl]-1-(2-methoxyphenyl)piperidine-4-carbonitrile [Example 20] | 123 | 
COc1cccc(C2(C#N)CCC(N3CCN(c4ncccn4)CC3)CC2)c1 (centres unmarked) [Example 82, 1-(3-methoxyphenyl)-4-(4-pyrimidin-2-yl-piperazin-1-yl)cyclohexanecarbonitrile] | 125 | 
COc1cccc([C@]2(C#N)CC[C@H](N3CCNCC3)CC2)c1 [Example 58-1, trans-1-(3-methoxyphenyl)-4-piperazin-1-yl-cyclohexanecarbonitrile dihydrochloride] | 152 | 
COc1cccc(C2(C#N)CCN(C3CCNCC3)CC2)c1 [Example 85, 4-(3-methoxyphenyl)-1,4′-bipiperidine-4-carbonitrile dihydrochloride] | 149 | 
COc1cccc(C2(C#N)CCN(c3ncccc3OCc3ccccc3)CC2)c1 [Example 6-3, 1-[3-(Benzyloxy)pyridin-2-yl]-4-(3-methoxyphenyl)-piperidine-4-carbonitrile] | 127 | 
COc1cccc([C@]2(C#N)CC[C@@H](NCc3ccccc3)CC2)c1 [Example 105, cis-4-(benzylamino)-1-(3-methoxyphenyl)-cyclohexanecarbonitrile] | 139 | 
